Test [1] addresses T1, Protein cereblon/Histone acetyltransferase p300 (Homo sapiens, UniProt Q09472+Q96SW2). Description: PROTAC activity at CRBN/p300 in human SK-HEP1 cells assessed as induction of p300 protein degradation incubated for 24 hrs by immunoblotting analysis. Type of test: cell-based. On the technique in general: In western blotting, separated proteins are transferred to a membrane and probed.

The target of test [2] is T1, Protein cereblon/Histone acetyltransferase p300. Description: PROTAC activity at CRBN/p300 in human SK-HEP1 cells assessed as induction of p300 protein degradation by measuring residual activity at 10 nM incubated for 24 hrs by immunoblotting analysis (reference value: 100%). Type of test: cell-based.
Target sequence in this assay (Q09472 2-2414 limits assumed): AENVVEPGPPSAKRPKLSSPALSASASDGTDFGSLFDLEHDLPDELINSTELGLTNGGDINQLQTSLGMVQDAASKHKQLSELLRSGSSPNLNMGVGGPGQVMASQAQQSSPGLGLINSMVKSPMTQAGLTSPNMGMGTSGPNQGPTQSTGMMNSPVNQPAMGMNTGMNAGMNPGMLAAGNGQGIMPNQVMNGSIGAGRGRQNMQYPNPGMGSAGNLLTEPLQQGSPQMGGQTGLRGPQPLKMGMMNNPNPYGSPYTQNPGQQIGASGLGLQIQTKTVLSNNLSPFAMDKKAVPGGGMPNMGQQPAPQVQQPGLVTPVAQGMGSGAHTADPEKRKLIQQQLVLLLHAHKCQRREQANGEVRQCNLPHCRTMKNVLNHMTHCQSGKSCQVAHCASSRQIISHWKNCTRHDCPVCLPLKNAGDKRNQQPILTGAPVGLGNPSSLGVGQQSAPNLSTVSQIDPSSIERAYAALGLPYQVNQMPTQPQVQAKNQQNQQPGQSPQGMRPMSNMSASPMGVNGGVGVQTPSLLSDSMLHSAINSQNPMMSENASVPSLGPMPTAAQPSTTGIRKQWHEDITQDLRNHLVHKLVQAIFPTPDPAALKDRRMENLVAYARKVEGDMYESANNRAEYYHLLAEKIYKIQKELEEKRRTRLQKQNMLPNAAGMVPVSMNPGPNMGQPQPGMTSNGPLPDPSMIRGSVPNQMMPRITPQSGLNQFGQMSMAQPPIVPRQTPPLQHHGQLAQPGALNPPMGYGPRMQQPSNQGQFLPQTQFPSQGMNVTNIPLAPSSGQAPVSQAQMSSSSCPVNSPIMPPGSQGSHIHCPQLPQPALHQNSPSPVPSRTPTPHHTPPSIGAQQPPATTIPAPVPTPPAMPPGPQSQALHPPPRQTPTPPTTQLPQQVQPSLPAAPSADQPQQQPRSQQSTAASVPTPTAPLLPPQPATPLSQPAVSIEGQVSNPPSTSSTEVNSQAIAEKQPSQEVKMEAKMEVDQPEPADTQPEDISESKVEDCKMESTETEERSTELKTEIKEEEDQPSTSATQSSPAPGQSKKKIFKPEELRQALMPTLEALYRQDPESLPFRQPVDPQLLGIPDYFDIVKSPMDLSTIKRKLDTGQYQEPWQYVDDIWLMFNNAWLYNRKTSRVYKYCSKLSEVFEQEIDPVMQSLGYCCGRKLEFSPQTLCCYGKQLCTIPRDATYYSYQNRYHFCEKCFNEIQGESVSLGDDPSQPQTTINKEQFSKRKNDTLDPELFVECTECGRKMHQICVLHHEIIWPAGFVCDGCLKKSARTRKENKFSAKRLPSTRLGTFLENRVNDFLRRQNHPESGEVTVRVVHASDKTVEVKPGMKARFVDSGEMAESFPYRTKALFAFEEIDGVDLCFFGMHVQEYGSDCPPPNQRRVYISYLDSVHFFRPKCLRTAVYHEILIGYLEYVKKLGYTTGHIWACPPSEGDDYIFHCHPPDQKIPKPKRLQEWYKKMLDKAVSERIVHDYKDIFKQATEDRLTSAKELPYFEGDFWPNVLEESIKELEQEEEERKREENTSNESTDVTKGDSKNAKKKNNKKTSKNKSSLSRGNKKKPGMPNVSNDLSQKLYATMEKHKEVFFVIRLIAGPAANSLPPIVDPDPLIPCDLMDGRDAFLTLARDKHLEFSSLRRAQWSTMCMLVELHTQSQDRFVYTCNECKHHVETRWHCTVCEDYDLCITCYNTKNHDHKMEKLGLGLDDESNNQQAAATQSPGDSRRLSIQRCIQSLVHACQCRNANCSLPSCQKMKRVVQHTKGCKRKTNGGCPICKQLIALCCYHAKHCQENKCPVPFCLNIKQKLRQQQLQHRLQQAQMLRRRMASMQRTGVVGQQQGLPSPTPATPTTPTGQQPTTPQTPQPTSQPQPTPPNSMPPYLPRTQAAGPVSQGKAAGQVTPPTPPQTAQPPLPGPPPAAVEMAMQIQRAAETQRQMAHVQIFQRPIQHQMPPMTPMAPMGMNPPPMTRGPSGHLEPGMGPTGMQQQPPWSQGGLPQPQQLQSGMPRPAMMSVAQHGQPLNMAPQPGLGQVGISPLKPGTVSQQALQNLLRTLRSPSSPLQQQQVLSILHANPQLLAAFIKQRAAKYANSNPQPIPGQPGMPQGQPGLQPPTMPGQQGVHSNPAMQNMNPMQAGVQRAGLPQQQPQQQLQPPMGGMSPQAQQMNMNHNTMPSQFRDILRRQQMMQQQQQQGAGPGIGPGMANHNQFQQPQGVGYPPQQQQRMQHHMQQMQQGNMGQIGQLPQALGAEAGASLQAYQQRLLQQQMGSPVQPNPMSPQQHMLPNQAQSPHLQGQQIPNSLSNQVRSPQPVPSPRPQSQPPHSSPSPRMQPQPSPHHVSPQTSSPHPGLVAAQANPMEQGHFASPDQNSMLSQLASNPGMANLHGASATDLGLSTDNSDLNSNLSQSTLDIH
Target sequence in this assay (Q96SW2 whole entry partner): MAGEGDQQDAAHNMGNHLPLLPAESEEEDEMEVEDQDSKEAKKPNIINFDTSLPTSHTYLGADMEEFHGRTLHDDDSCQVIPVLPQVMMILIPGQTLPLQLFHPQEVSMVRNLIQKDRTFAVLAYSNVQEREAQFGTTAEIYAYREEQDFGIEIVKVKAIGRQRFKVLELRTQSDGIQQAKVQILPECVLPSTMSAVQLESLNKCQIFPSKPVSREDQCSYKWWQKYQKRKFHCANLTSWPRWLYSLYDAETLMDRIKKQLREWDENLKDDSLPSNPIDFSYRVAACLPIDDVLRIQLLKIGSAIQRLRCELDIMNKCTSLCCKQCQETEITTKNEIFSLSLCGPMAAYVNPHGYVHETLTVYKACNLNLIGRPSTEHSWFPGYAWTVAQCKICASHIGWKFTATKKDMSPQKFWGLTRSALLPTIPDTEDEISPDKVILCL
For test [3] the target is unchanged. The test can be described thus: PROTAC activity at CRBN/p300 in human SK-HEP1 cells assessed as induction of p300 protein degradation by measuring residual activity at 250 nM incubated for 24 hrs by immunoblotting analysis (reference value: 100%). Format: cell-based.
Target sequence in this assay (Q09472 2-2414 limits assumed): as the sequence (Q09472 2-2414 limits assumed) above
Target sequence in this assay (Q96SW2 whole entry partner): as the sequence (Q96SW2 whole entry partner) above
Test [4] has the same target. The test can be described thus: PROTAC activity at CRBN/p300 in human SK-HEP1 cells assessed as induction of p300 protein degradation by measuring residual activity at 1 uM incubated for 0.5 hrs by immunoblotting analysis (reference value: 100%). Format: cell-based.
Target sequence in this assay (Q09472 2-2414 limits assumed): as the sequence (Q09472 2-2414 limits assumed) above
Target sequence in this assay (Q96SW2 whole entry partner): as the sequence (Q96SW2 whole entry partner) above
Test [5] has the same target. The test can be described thus: PROTAC activity at CRBN/p300 in human SK-HEP1 cells assessed as induction of p300 protein degradation by measuring residual activity at 2 uM incubated for 24 hrs by immunoblotting analysis (reference value: 100%). Format: cell-based.
Target sequence in this assay (Q09472 2-2414 limits assumed): as the sequence (Q09472 2-2414 limits assumed) above
Target sequence in this assay (Q96SW2 whole entry partner): as the sequence (Q96SW2 whole entry partner) above
The target is the same in test [6]. The test can be described thus: PROTAC activity at CRBN/p300 in human SK-HEP1 cells assessed as induction of p300 degradation by measuring residual activity at 0.5 uM pretreated with MLN4924 at 0.1 uM followed by compound addition by immunoblotting analysis relative to control. Type of test: cell-based.
Target sequence in this assay (Q09472 2-2414 limits assumed): as the sequence (Q09472 2-2414 limits assumed) above
Target sequence in this assay (Q96SW2 whole entry partner): as the sequence (Q96SW2 whole entry partner) above
The test system of test [7] is SK-HEP1. The test can be described thus: Inhibition of colony formation in human SK-HEP1 cells at 1 uM incubated for 14 days with compound containing media replacement for every 3 days by crystal violet staining based assay relative to control. Type of test: functional. The conditions noted are these: SK-HEP1, 336 h, time 14 day.
Test [8] concerns SK-HEP1. Description: Induction of apoptosis in human SK-HEP1 cells incubated for 72 hrs by Annexin V-FITC/PI staining based flow cytometry analysis. The conditions noted are these: dose 0.5-2 µM. Format: functional, cell-based. On the technique in general: In flow cytometry, cells or beads pass a laser one at a time.
The subject of test [9] is SK-HEP1. Description: Induction of cell cycle arrest at G2/M phase in human SK-HEP1 cells assessed as SKP2 protein level at 0.5 uM incubated for 24 hrs by immunoblotting analysis (reference value: 100%). Type of test: functional.
Test [10] has as its system SK-HEP1. Description: Induction of cell cycle arrest at G2/M phase in human SK-HEP1 cells assessed as SKP2 protein level at 1 uM incubated for 24 hrs by immunoblotting analysis (reference value: 100%). Type of test: functional.
The subject of test [11] is SK-HEP1. The test can be described thus: Induction of cell cycle arrest at G2/M phase in human SK-HEP1 cells assessed as SKP2 protein level at 2 uM incubated for 24 hrs by immunoblotting analysis (reference value: 100%). Type of test: functional.
Test [12] concerns SK-HEP1. The test can be described thus: Induction of cell cycle arrest at G2/M phase in human SK-HEP1 cells assessed as CDK6 protein level at 1 uM incubated for 24 hrs by immunoblotting analysis (reference value: 100%). Format: functional.

The DC50 is the concentration at which degradation of the target reaches its halfway point. Usually inhibition stands for the percentage by which the read-out fell short of the control. In the case of `Cc1noc(C)c1-c1ccc2c(c1)nc([C@@H]1CCCC(=O)N1c1ccc(F)c(F)c1)n2C1CCN(C2CN(c3ccc4c(c3)C(=O)N(C3CCC(=O)NC3=O)C4=O)C2)CC1` (stereo partly drawn), the Activity result in test [1] was “Dose-Dependent Effect”; in test [2], 70%; in test [3], 38%; in [4], 100%; in [5] it was 62%; in test [6] it was 115%. Moreover, the Activity entry with SK-HEP1 [8] was “Dose-Dependent Effect”; with SK-HEP1 [9], 117%; with SK-HEP1 [10] it was 88%; with SK-HEP1 [11], 60%; in the test on SK-HEP1 [12] it was 102%. Further, in [1], the DC50 was found to be 0.093 µM. Moreover, the inhibition at 1 µM in the test with SK-HEP1 [7] was greater than 70%.

The record behind these values is ChEMBL document CHEMBL5528046, “Discovery of Novel PROTAC Degraders of p300/CBP as Potential Therapeutics for Hepatocellular Carcinoma” (J Med Chem, 2024).
